The test system of one data set is RG neurons. To be noted: intra-vitrial injection or SC 10 mg/kg, cited from earlier work.
The subject of a further data set is Daoy (medulloblastoma). Put plainly: Clonogenic assay Daoy. The format is cell-based, human. To be noted: compound 24 hours, colonies counted after 7-10 days, read-out: ED50 (the source's name). The protocol: (§1) In this paradigm, Du145 prostate, HCT116 colon, 15N Neuroblastoma, IMR32 Neuroblastoma, Daoy Medulloblastoma, and MDAMB231 breast cells are individually plated and allowed to proliferate for 48 hours. Compound is added to the culture and left on for 24 hours, at which time both compound and dead cells are washed off the plate. Fresh media is added and the cells are allowed to grow for an additional 7-10 days. The remaining healthy cells reproduce and formed localized colonies. These colonies are counted and EC50 values are determined relative to non-treated controls.
(§2) Du145 prostate, HCT116 colon, 15N Neuroblastoma, IMR32 Neuroblastoma, Daoy Medulloblastoma, and MDAMB231 breast cells were plated in 6 well plates and allowed to grow for 5 days._Cells were exposed to compound for 24 hours, the culture media was removed and replaced with fresh media. The cells were kept in cultured for 7-10 days after which colonies were counted and EC50 values were determined relative to non-treated controls.

For another data set, the system named is SCG neurons. To be noted: cited from earlier work.
A further data set can be described thus: Microsomal stability. In kind it is in vitro ADME. To be noted: 1 hr.
Another data set has as its system HCT116 (colon). Put plainly: Clonogenic assay HCT116. The format is cell-based. To be noted: compound 24 hours, colonies counted after 7-10 days, read-out: ED50 (the source's name). Here is the method:
as §1, §2

The test system of the next data set is MDAMB231 (breast). Put plainly: Clonogenic assay MDAMB231. The format is cell-based. To be noted: compound 24 hours, colonies counted after 7-10 days, read-out: ED50 (the source's name). The protocol: as §1, §2
For the next data set, the system named is Du145 (prostate). Put plainly: Clonogenic assay Du145. In kind it is cell-based. To be noted: compound 24 hours, colonies counted after 7-10 days, read-out: ED50 (the source's name). Here is the method:
as §1, §2

Data set [1] in a line: Pharmacokinetics of primary sulfonamides and Na salts (oral, SC). The format is in vivo. To be noted: for Cmax: aqueous 0.5 wt/vol % CMC/0.5 wt/vol % Tween 80 (semi-)suspension. Here is the method:
HPCD formulations of compounds represented by formula I also display improved pharmacokinetic properties as compared to compounds dissolved in water.
When compound 2 is administered at 10 mg/kg SC excellent plasma drug concentrations are observed_(Cmax=2.0 μg/mL, C1/2=0.8 hrs). […]

The next data set has as its system Sprague Dawley rats. To be noted: 10 mg/kg, cited from earlier work.
The next data set concerns 15N neuroblastoma cells. Put plainly: Alamar blue viability assay, 15N neuroblastoma. The format is cell-based. To be noted: for IC50: cellular viability after 48 hours, compound dissolved in DMSO. Here is the method:
In order to investigate the anti-cancer potential of compounds represented by formula I-a, 15N neuroblastoma cells lines were treated with compound and assayed for cellular viability after 48 hours. The cellular viability of 15N neuroblastomas treated with compounds 1, 5, 6, 11, and 13 (dissolved in DMSO) are summarized in Table 5 (see Compound 152).
Compounds were tested for anti-cancer properties using the Alamar blue viability assay. Daoy human medulloblastoma cells of 15N neuroblastoma cells were plated at a density of 5000 cells per well of a 96 well plate and cultured in RPMI media supplemented with antibiotics and 5% fetal bovine serum. Cells in culture were incubated with compound for 48 hours after which time Alamar blue was added to the culture media. After 4 hours media was transferred to opaque white plates and fluorescence of transformed alamar blue was measured at excitation 535/emission 595).

For a further data set, the system named is 15 N (neuroblastoma). Put plainly: Clonogenic assay 15N. To be noted: compound 24 hours, colonies counted after 7-10 days, read-out: ED50 (the source's name). In kind it is cell-based. Here is the method:
as §1, §2

Data set [2] is described as follows: Stability of solutions/formulations. The format is physicochemical. The source says: (§3) This is illustrated for compound 15 in Table 7.
The subject of a further data set is Male Sprague-Dawley rats. Put plainly: Rat model of cisplatin induced neuropathy (SNCV). In kind it is in vivo. The protocol: (§4) Male Sprague-Dawley rats were administered 2.5 mg/kg cisplatin daily, for five consecutive days to achieve a final cumulative dose of 12.5 mg/kg. On the third day following the final cisplatin injection, animals received compounds SC at concentrations of (3, 10, and 30 mg/kg). Dosing continued Monday through Friday for three consecutive weeks. The effect of cisplatin on peripheral nerve function, and the ability of the compounds to attenuate the cisplatin effect were determined after three weeks of drug treatment by measuring the sensory nerve conduction velocity (SNCV) in the caudal nerve of the tail. Stimulating electrodes were used to deliver 2 mA pulses once per second for 1.5 min. The resulting compound sensory nerve action potentials were averaged, and the mean response onset time was determined from the averaged response. Two mean response times were determined, the second being 20 mm distal from the first. The difference in onset time between the two recordings was determined and used to calculate the conductance velocity.
Male Sprague-Dawley rats (weighing 200-225 g on arrival) were intraperitoneally administered 2.5 mg/kg cisplatin daily, for five consecutive days to achieve a final cumulative dose of 12.5 mg/kg. On the third day following the final cisplatin injection, animals received compounds SC at concentrations of (3, 10, and 30 mg/kg). Dosing continued Monday through Friday for three consecutive weeks.
as §4, with “The” for “Male Sprague-Dawley rats were administered 2.5 mg/kg cisplatin daily, for five consecutive days to achieve a final cumulative dose of 12.5 mg/kg. On the third day following the final cisplatin injection, animals received compounds SC at concentrations of (3, 10, and 30 mg/kg). Dosing continued Monday through Friday for three consecutive weeks. The”, “velocity. [formula]” for “velocity.”
The results of these experiments were combined, and ANOVA was performed, followed by a Fisher LSD test.

Data set [3] is described as follows: Solubility in water and formulations.
Procedure: Alternatively, the sodium salt can be prepared in situ by dissolving the free acid in phosphate buffered saline (PBS) that has been buffered to a pH of 7.4. The solubility and stability of these solutions can be improved by the use of an aqueous soluble co-solvent such as, but not limited to HPCD. This solubility can be further improved by the addition of surfactants such as PEG 400. In general, the free acid is suspended in 10 wt/vol % HPDC (10 g dissolved in 100 mL water) and treated with 0.5M PBS (pH 7.4) such that the volumes are in a ratio of 75:25.
A further data set has as its system sciatic nerve. To be noted: 1 and 10 mg/kg; cited from earlier work.
The next data set has as its system IMR32 (neuroblastoma). Put plainly: Clonogenic assay IMR32. In kind it is cell-based. To be noted: compound 24 hours, colonies counted after 7-10 days, read-out: ED50 (the source's name). The protocol: as §1, §2
Data set [4] concerns motor neurons found in layer V of the cortex. To be noted: drug concentration 1 μM; malonate; P1 rat motor cortex slices; cited from earlier work.
Another data set is described as follows: pH of formulation. In kind it is physicochemical. To be noted: PBS/HPCD (25:75) solution.
Excerpt: as §3

Data set [5] can be described thus: Conversion to primary sulfonamide in rat primary hepatocytes. To be noted: 90 minutes. The format is in vitro ADME. Here is the method: (§5) Compound 15 is converted to compound 1 in the presence of liver microsomes using the procedure described by Cresteil, T., et al. (Cresteil, T., et al. Am. Soc. Pharm. Exper. Therapeutics, 2002, 30, 438-445). Upwards of 50% conversion is observed after 60 minutes. When incubated with rat primary hepatocytes, the conversion of compounds 15, 37, and 44 to their respective primary sulfonamides, 1, 11, and 13, is observed.

Data set [6] can be described thus: Pharmacokinetics and in vivo conversion of N-acylsulfonamides in rats (SC). Also on record: species or system rat. To be noted: subcutaneously, 10 mg/mL. Here is the method: When administered to rats subcutaneously, compound 15 (10 mg/mL) is well distributed (Cmax=20 μg/mL in plasma). Conversion of compound 15 to 1 is observed with plasma levels of 1 reaching a Cmax of 0.5-1 μg/mL. Conversion of compound 16 to compound 1 is observed with plasma levels of 1 reaching a Cmax of 3 μg/mL Similar in vivo conversion is observed for select compounds listed in table 5 with whole blood drug concentrations being similar to that of their respective primary sulfonamide sodium salts, represented by formula I-a, administered at the same dose in aqueous 10 wt/vol % HPCD.

The nature of a further data set: log P. The format is physicochemical.
A short description of data set [7]: Conversion to primary sulfonamide in liver microsomes. The format is in vitro ADME. To be noted: after 60 minutes. Here is the method:
as §5

Setting [8] is: Taxol induced cell death, read-out: Taxol SCG IC50.
Setting [9] is: gavage 10 mg/kg, CMC/Tween 80 (semi-)suspension.
[10] abbreviates: 250 μL 0.5 M PBS + 250 μL 10% HPCD + 500 μL 20% PEG 400.

In brackets after ≈: the same amount, converted by molar mass. Several values for one entry are separate records, joined by “and”; a condition that tells them apart may be missing. Identical values can stand only once. Like-named read-outs stand apart in the source and are kept apart here. A value given as a limit tells only on which side of the number the result lay.

By IC50 is commonly meant the concentration that gives 50% inhibition. In general, Cmax refers to the maximum level reached in the sampled fluid or tissue. For `NS(=O)(=O)c1nn2cc(-c3ccccc3)nc2s1` [Compound 1], the “histology of RG layer” value in the data set with RG neurons is recorded as “healthy RG layers”. Moreover, the “electro-retinogram (ERG)” value in the data set with RG neurons (versus vehicle) was “significant improvements”. Moreover, the EC50 was above 5 µM with Daoy (medulloblastoma); 12 µM in the data set with HCT116 (colon); above 5 µM in the data set on MDAMB231 (breast); 8 µM with Du145 (prostate); 7 µM in the data set on 15 N (neuroblastoma). The IC50 was 7 µM with SCG neurons (setting [8]); 22 µM in the data set with SCG neurons (anti-NGF induced cell death, read-out: anit-NGF SCG IC50); 5 µM in the data set on SCG neurons (cisplatin induced cell death, read-out: cisplatin SCG IC50); 10 µM in the data set on SCG neurons (vincristine induced cell death, read-out: vincristine SCG IC50); ~20 µM and 20 µM in the data set with 15N neuroblastoma cells. In the data set “Microsomal stability”, the “Microsomal Stability (1 hr)” value is 90%. Further, the oral bioavailability result in [1] (setting [9]) is reported as “moderate”. In addition, the Cmax in [1] (gavage 10 mg/kg) was 200 ng/mL. The weight gain entry in the data set on Sprague Dawley rats (Taxol 9 mg/kg twice weekly for 3 weeks) is “normal weight gain”. Also, the “loss in foot pad contact” value in the data set on Sprague Dawley rats (Taxol alone 46% loss) is 23%.

On to `[NH-]S(=O)(=O)c1nn2cc(-c3ccccc3)nc2s1.[Na+]` [Compound 2], for which the “Stability of HPCD formulation” value in data set [2] (10 wt/vol % HPCD, room temperature) is above 14 days. Besides, the “Cisplatin-induced loss in SNCV” value with Male Sprague-Dawley rats (10-30 mg/kg, data not shown) is given as “protective”. The “efficacy in cisplatin model of peripheral neuropathy” value in the data set with Male Sprague-Dawley rats (dose not stated) is “efficacy”. Moreover, the C1/2 in data set [1] (SC 10 mg/kg) stood at 0.8 h. Besides, the “plasma Cmax” value in data set [1] (SC 10 mg/kg, 10 wt/vol % HPCD solution) is 2000 ng/mL. In data set [1] (setting [9]), the C1/2 is 0.9 h and the oral bioavailability result is given as “improved”. The Cmax in data set [1] (gavage 10 mg/kg) was determined as 560 ng/mL. The “Solubility 10 wt/vol % HPCD water” value in [3] (Na salts in aqueous 10 wt/vol % HPCD) is 20000 µg/mL. In addition, the “Solubility Water” value in data set [3] (Na salts in water) is 10000 µg/mL. The “functional recovery (toe spread)” value in the data set with sciatic nerve was “improved recovery”.

As for `NS(=O)(=O)c1nn2cc(-c3ccc(-c4cccc(C(F)(F)F)c4)cc3)nc2s1` [Compound 11], the EC50 is 1 µM in the data set on Daoy (medulloblastoma), 1.5 µM in the data set with HCT116 (colon), 1 µM in the data set on MDAMB231 (breast) and 0.75 µM in the data set with 15 N (neuroblastoma). For the same compound, the IC50 with SCG neurons (setting [8]) and with 15N neuroblastoma cells was 2 µM in each case. Also, the “Microsomal Stability (1 hr)” value in “Microsomal stability” stood at 60%. In the data set with 15N neuroblastoma cells (15N neuroblastoma), the “fold increase in activity over compound 1” value is given as 10 fold.

As to `NS(=O)(=O)c1nn2cc(-c3ccc(Oc4ccc(Cl)cc4)cc3)nc2s1` [Compound 13], the IC50 in the data set on SCG neurons (setting [8]) was 3 µM; in the data set with 15N neuroblastoma cells it was 10 µM. Further, the “Microsomal Stability (1 hr)” value in “Microsomal stability” is 85%. The EC50 with Du145 (prostate) was 8 µM; in the data set with IMR32 (neuroblastoma), 0.75 µM. For the same compound, the “protection of SMI-32 labeled motor neurons” value in [4] is on record as above 80%.

As usually defined, the solubility is the dissolved amount per volume that the medium holds. As a reminder, the log P is a log measure of how a compound divides between an organic and an aqueous phase. Lower therefore signals a more hydrophilic compound. Regarding `CC(=O)NS(=O)(=O)c1nn2cc(-c3ccccc3)nc2s1` [Compound 15], the values for the Stability in data set [2] (setting [10]) and in data set [2] (1000 μL 0.5 M PBS) were above 4 weeks and 1 to 2 days, respectively. For the same compound, the “Stability in 10 wt/vol HPCD” value in data set [2] (PBS/HPCD (25:75) solution) is listed as above 4 weeks. The compound also showed a pH in the data set “pH of formulation” of 7.4. Also, the “conversion rate to primary sulfonamide” value in [5] amounted to 6%. Further, in [6], the Cmax in plasma turned out to be 20000 ng/mL. Also, the dissolution result in [3] (25 mg in 1 mL PEG 400/ethanol (50:50) + ethanolamine (20 μL)) is “clear solution”. For the same compound, in [3] (10 wt/vol % HPCD + 1 equiv of ethanolamine, dimethylaminoethanol or 4-aminopyridine), the clear solution concentration lay in the range of 5 to 10 mg/mL. Also, the solubility in data set [3] (setting [10]) was 25000 µg/mL; in data set [3] (250 μL 0.5 M PBS + 750 μL 10% HPCD), 10000 µg/mL. The “Solubility in 10 wt/vol HPCD” value in data set [3] (PBS/HPCD (25:75) solution) is 10000 µg/mL (≈ 31 mM). For the same compound, the “log P” value in “log P” came to 2.6. In addition, the “conversion to compound 1” value in [7] is on record as above 50%.

(Values after patent publication US20070112043A1, “Acylated and non-acylated imidazo[2,1-b]-1,3,4,-thiadiazole-2-sulfonamides, and uses thereof” (priority 2003, published 2007).)
